Assays:
Format in all cases: biochemical
[1] = biological target: T1, human c-KIT (Thr544-Val976) (Homo sapiens, UniProt P10721); assay: c-KIT kinase assay (HTScan kit, DELFIA); conditions: for inhibition at 0.1 µM: compound at 0.1 μM, read-out: c-KIT 0.1 μM, % of inhibition relative to control; for inhibition at 1 µM: compound at 1 μM, read-out: c-KIT 1 μM, % of inhibition relative to control
T1 construct: human c-KIT (Thr544-Val976); GST (N); purchased Cell Signaling Technology; host or cells: baculovirus expression system
T1 sequence (P10721 544-976): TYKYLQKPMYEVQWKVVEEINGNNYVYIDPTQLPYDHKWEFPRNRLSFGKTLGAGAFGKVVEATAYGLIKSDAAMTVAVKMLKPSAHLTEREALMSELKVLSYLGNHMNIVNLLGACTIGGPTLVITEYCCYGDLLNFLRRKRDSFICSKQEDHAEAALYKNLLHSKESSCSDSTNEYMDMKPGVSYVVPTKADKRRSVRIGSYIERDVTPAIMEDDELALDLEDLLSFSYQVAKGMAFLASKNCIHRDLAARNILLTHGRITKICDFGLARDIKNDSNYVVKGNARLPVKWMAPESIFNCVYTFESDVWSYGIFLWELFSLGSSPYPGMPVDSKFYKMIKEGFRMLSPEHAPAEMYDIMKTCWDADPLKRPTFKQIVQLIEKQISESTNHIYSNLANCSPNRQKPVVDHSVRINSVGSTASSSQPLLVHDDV
Method in brief: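 GST-tagged human c-KIT (Thr544-Val976) from baculovirus, with 1.5 μM biotinylated KDR Tyr-996 peptide and 20 μM ATP in HEPES pH 7.5 buffer containing Mg2+/Mn2+ and 1% DMSO. Enzyme and compound pre-incubated 5 min, reaction run 30 min at room temperature; phosphorylation detected by DELFIA.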

[2] = biological target: T2, human FLT-3 (Arg571-Ser993) (Homo sapiens, UniProt P36888); assay: FLT-3 kinase assay (HTScan kit, DELFIA); conditions: for inhibition at 0.1 µM: compound at 0.1 μM, read-out: FLT-3 0.1 μM, % of inhibition relative to control; for inhibition at 1 µM: compound at 1 μM, read-out: FLT-3 1 μM, % of inhibition relative to control
T2 construct: human FLT-3 (Arg571-Ser993); GST (N); purchased Cell Signaling Technology; host or cells: baculovirus expression system
T2 sequence (P36888 571-993): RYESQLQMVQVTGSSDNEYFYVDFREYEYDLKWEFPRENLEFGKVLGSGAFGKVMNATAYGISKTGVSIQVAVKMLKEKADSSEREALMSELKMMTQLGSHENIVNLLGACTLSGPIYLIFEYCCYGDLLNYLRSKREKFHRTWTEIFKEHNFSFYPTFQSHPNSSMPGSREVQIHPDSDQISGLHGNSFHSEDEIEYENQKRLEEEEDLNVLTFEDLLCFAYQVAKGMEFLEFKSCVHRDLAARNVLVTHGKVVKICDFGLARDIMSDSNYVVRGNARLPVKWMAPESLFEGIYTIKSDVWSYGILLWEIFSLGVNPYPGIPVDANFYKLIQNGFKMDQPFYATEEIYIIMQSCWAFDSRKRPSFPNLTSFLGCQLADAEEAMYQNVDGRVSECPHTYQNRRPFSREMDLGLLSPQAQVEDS
Method in brief: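 GST-tagged human FLT-3 (Arg571-Ser993, baculovirus-expressed) phosphorylated 1.5 μM biotinylated gastrin precursor peptide with 20 μM ATP in HEPES pH 7.5, Mg/Mn buffer and 1% DMSO. After 5 min preincubation, the reaction ran 30 min at room temperature. Phosphorylation was read by DELFIA.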

[3] = biological target: T3, human VEGFR-2 (Val789-Val1356) (Homo sapiens, UniProt P35968); assay: KDR kinase assay (HTScan VEGFR-2 kit, DELFIA); conditions: for inhibition at 0.1 µM: compound at 0.1 μM, read-out: KDR 0.1 μM, % of inhibition relative to control; for inhibition at 1 µM: compound at 1 μM, read-out: KDR 1 μM, % of inhibition relative to control
T3 construct: human VEGFR-2 (Val789-Val1356); GST (N); purchased Cell Signaling Technology; host or cells: baculovirus expression system
T3 sequence (P35968 789-1356): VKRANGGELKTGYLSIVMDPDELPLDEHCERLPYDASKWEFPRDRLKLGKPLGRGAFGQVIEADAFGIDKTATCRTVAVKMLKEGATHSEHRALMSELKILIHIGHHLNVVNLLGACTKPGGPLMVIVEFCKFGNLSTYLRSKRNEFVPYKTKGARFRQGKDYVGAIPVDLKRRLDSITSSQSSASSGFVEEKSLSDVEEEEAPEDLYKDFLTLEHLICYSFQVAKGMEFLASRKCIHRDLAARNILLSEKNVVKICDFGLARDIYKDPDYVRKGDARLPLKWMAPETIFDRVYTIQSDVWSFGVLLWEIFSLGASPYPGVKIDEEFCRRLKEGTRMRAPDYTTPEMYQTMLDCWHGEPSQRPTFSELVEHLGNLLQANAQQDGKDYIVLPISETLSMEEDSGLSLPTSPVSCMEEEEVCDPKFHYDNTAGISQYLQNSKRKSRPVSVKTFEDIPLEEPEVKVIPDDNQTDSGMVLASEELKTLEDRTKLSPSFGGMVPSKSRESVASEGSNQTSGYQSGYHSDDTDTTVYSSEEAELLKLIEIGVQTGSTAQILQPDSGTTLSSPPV
Method in brief: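 GST-tagged human VEGFR-2 (Val789-Val1356) from baculovirus, with 1.5 μM biotinylated gastrin precursor peptide and 20 μM ATP in HEPES pH 7.5, Mg/Mn, vanadate, DTT, 1% DMSO. Pre-incubation 5 min, reaction 30 min at room temperature; phosphorylation read by DELFIA.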

[4] = biological target: T4, human PDGFRβ (Gln557-Leu1106) (Homo sapiens, UniProt P09619); assay: PDGFR-beta kinase assay (HTScan kit, DELFIA); conditions: compound at 10 μM
T4 construct: human PDGFRβ (Gln557-Leu1106); GST (N); purchased Cell Signaling Technology; host or cells: baculovirus expression system
T4 sequence (P09619 557-1106): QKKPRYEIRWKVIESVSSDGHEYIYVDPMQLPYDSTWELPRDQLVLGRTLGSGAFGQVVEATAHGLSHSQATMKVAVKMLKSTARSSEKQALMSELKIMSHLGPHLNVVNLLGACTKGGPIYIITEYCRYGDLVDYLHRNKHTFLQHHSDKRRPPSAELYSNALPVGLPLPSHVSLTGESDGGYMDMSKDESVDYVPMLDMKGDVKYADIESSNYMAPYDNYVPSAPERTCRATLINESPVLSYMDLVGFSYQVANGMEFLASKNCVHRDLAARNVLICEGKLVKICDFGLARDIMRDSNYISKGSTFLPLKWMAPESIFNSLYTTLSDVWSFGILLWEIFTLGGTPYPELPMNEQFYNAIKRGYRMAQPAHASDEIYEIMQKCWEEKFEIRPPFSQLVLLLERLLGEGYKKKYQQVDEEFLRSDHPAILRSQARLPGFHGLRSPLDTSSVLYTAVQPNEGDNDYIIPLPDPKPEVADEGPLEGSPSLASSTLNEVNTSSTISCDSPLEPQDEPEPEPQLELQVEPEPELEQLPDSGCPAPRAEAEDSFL
Method: (§1) Compounds 1-100 were treated for their efficacy in inhibiting activities of FLT-3, c-KIT, KDR/Flk-1, PDGFR-beta, EGFR, and PKC kinases by biochemical DELFIA (Dissociation Enhanced Lanthanide FIA) assays according to the procedure described below. The assays were conducted by, Division of Cell Engineering, Biomedical Engineering Research Laboratories, Industrial Technology Research Institute, Bldg. 53, 195, sec. 4, Chung Hsing Rd. Chutung, Hsinchu, Taiwan 310, R.O.C.
The PDGFR-beta assay was conducted following the protocol described in Protocol for HTScan® PDGFR-beta Kinase Assay Kit (Cell Signaling Technology®). The assay was conducted under the following conditions: PDGFR-beta source: The GST-Kinase fusion protein was produced using a baculovirus expression system with a construct expressing human PDGFRβ (Gln557-Leu1106) (GenBank Accession No. NM_002609) with an amino-terminal GST tag, substrate: This biotinylated peptide contains the residues surrounding Tyr-589 of FLT-3, vehicle: 1% DMSO, pre-incubation time/temperature: 5 minutes at room temperature, incubation time/temperature: 30 minutes at room temperature, incubation buffer: 60 mM HEPES pH 7.5, 5 mM MgCl2, 5 mM MnCl2, 3 μM Na3VO4, 1.25 mM DTT, 20 μM ATP, and quantitative method: DELFIA® Assay.

[5] = biological target: T5, human EGFR (His672-Ala1210) (Homo sapiens, UniProt P00533); assay: EGFR kinase assay (HTScan kit, DELFIA); conditions: for inhibition at 0.1 µM: compound at 0.1 μM, read-out: EGFR 0.1 μM, % of inhibition relative to control; for inhibition at 1 µM: compound at 1 μM, read-out: EGFR 1 μM, % of inhibition relative to control
T5 construct: human EGFR (His672-Ala1210); GST (N); purchased Cell Signaling Technology; host or cells: baculovirus expression system
T5 sequence (P00533 672-1210): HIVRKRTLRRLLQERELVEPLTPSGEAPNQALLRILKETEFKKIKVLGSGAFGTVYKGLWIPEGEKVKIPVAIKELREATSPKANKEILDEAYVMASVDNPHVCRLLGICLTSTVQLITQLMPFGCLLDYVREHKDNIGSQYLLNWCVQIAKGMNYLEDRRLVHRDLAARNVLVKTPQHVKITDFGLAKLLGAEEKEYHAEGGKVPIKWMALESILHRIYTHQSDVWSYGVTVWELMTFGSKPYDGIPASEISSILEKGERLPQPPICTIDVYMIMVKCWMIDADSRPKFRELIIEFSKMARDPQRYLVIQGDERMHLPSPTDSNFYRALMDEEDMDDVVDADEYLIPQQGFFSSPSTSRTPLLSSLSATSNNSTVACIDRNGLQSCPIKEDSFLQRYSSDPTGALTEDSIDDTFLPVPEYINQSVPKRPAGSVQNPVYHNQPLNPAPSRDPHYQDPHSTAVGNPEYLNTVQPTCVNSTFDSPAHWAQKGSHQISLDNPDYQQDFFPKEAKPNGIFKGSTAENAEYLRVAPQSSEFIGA
Method: as §1
The EGFR assay was conducted following the protocol described in Protocol for HTScan® EGFR Kinase Assay Kit (Cell Signaling Technology®). The assay was conducted under the following conditions: EGFR source: The GST-kinase fusion protein was produced using a baculovirus expression system with a construct expressing human EGFR (His672-Ala1210) (GenBank Accession No. NM_005228) with an amino-terminal GST tag, substrate: 1.5 μM This biotinylated peptide contains the residues surrounding Tyr-66 of PTP1B, vehicle: 1% DMSO, pre-incubation time/temperature: 5 minutes at room temperature, incubation time/temperature: 30 minutes at room temperature, incubation buffer: 60 mM HEPES pH 7.5, 5 mM MgCl2, 5 mM MnCl2, 3 μM Na3VO4, 1.25 mM DTT, 20 μM ATP, and quantitative method: DELFIA® Assay.

COC(=O)c1cc(/C=C2\C(=O)Nc3ccccc32)c2cccccc1-2 [Compound 16, 3-(2-Oxo-1,2-dihydro-indol-3-ylidenemethyl)-azulene-1-carboxylic acid methyl ester]
inhibition at 0.1 µM [1]: 2.8% | inhibition at 1 µM [1]: 2.8% | inhibition at 0.1 µM [2]: 7.7% | inhibition at 0.1 µM [3]: 15.4% | inhibition at 1 µM [3]: 20.1% | PDGFR-β 10 μM, % of inhibition relative to control [4]: 3.6%

O=C1Nc2ccc(Br)cc2/C1=C\c1ccc2cccccc1-2 [Compound 7, 3-Azulen-1-ylmethylene-5-bromo-1,3-dihydro-indol-2-one]
inhibition at 0.1 µM [1]: 30.9% | inhibition at 1 µM [1]: 30.9% | inhibition at 0.1 µM [2]: 17.8% | inhibition at 1 µM [2]: 40.1% | inhibition at 0.1 µM [3]: 29.5% | inhibition at 1 µM [3]: 28.8% | PDGFR-β 10 μM, % of inhibition relative to control [4]: 4.7%

O=C1C(=Cc2ccc3cccccc2-3)c2ccccc2N1Cc1ccccc1 [Compound 2, 3-Azulen-1-ylmethylene-1-benzyl-1,3-dihydro-indol-2-one]
inhibition at 0.1 µM [1]: 24.7% | inhibition at 1 µM [1]: 24.7% | inhibition at 1 µM [3]: 10.3% | PDGFR-β 10 μM, % of inhibition relative to control [4]: 3.6%

Cc1cc(/C=C2/C(=O)Nc3ccccc32)c2c(C)ccc(C(C)C)cc1-2 [Compound 12, 3-(5-Isopropyl-3,8-dimethyl-azulen-1-ylmethylene)-1,3-dihydro-indol-2-one]
inhibition at 0.1 µM [1]: 14.7% | inhibition at 1 µM [1]: 14.7% | inhibition at 0.1 µM [3]: 17.3% | inhibition at 1 µM [3]: 34.3% | PDGFR-β 10 μM, % of inhibition relative to control [4]: 7.3%

O=C1/C(=C/c2ccc3cccccc2-3)c2ccccc2N1C(c1ccccc1)c1ccccc1 [Compound 3, 3-Azulen-1-ylmethylene-1-benzhydryl-1,3-dihydro-indol-2-one]
inhibition at 1 µM [2]: 5.1% | PDGFR-β 10 μM, % of inhibition relative to control [4]: 14.4%

O=C1Nc2ccc(Br)cc2/C1=C/c1ccc2cccccc1-2 [Compound 6, 3-Azulen-1-ylmethylene-5-bromo-1,3-dihydro-indol-2-one]
inhibition at 0.1 µM [1]: 36.6% | inhibition at 1 µM [1]: 36.6% | inhibition at 0.1 µM [3]: 19.6% | inhibition at 1 µM [3]: 29.7% | PDGFR-β 10 μM, % of inhibition relative to control [4]: 35.5%

O=C1Nc2ccc(F)cc2/C1=C/c1cc(Cl)c2cccccc1-2 [Compound 46, 3-(3-Chloro-azulen-1-ylmethylene)-5-fluoro-1,3-dihydro-indol-2-one]
inhibition at 0.1 µM [1]: 70.9% | inhibition at 1 µM [1]: 70.9% | inhibition at 0.1 µM [2]: 45.9% | inhibition at 1 µM [2]: 73.5% | inhibition at 0.1 µM [3]: 10% | inhibition at 1 µM [3]: 33.2% | inhibition at 0.1 µM [5]: 11% | inhibition at 1 µM [5]: 18.5%

O=C1Nc2ccc(F)cc2/C1=C\c1cc2cccccc-2c1 [Compound 40, 3-Azulen-2-ylmethylene-5-fluoro-1,3-dihydro-indol-2-one]
inhibition at 0.1 µM [1]: 80% | inhibition at 1 µM [1]: 80% | inhibition at 0.1 µM [2]: 84.3% | inhibition at 1 µM [2]: 95.5% | inhibition at 0.1 µM [3]: 13.8% | inhibition at 1 µM [3]: 22.2% | inhibition at 0.1 µM [5]: 10% | inhibition at 1 µM [5]: 17.3%

Cc1cc(C)c2ccc(/C=C3/C(=O)N(Cc4ccccc4)c4ccccc43)c-2c(C)c1 [Compound 10, 1-Benzyl-3-(4,6,8-trimethyl-azulen-1-ylmethylene)-1,3-dihydro-indol-2-one]
inhibition at 0.1 µM [1]: 8.4% | inhibition at 1 µM [1]: 8.4% | inhibition at 0.1 µM [3]: 22.1% | inhibition at 1 µM [3]: 38.5% | PDGFR-β 10 μM, % of inhibition relative to control [4]: 18.6%

Cc1cc(/C=C2\C(=O)Nc3ccc(F)cc32)c2cccccc1-2 [Compound 39, 5-Fluoro-3-(3-methyl-azulen-1-ylmethylene)-1,3-dihydro-indol-2-one]
inhibition at 0.1 µM [1]: 80.1% | inhibition at 1 µM [1]: 80.1% | IC50 ([1]; read-out: c-KIT kinase inhibition (IC50)): 0.129 µM | inhibition at 0.1 µM [2]: 45.6% | inhibition at 1 µM [2]: 93.2% | IC50 ([2]; read-out: FLT-3 kinase inhibition (IC50)): 0.491 µM | inhibition at 1 µM [3]: 20.2% | IC50 ([3]; read-out: KDR kinase inhibition (IC50)): 6.38 µM | inhibition at 0.1 µM [5]: 6.1% | inhibition at 1 µM [5]: 14.1%

Reference: patent publication US7714146B2, “Azulene-oxindole compounds as multiple-kinase inhibitors and useful as anticancer agents” (Industrial Technology Research Institute, priority 2006, dated 2010)
